Measured values as given in PubChem BioAssay (NCI).
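Each compound was tested at five concentrations against cells in 96-well plates for 48 hours. At the GI50, growth is halved. TGI denotes the concentration required for complete inhibition of growth.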

Legend:
Assay in all cases: growth of human tumour cells (NCI), 48 h
786-0 renal = test system: 786-0 renal
A498 renal = test system: A498 renal
A549 NSCLC = test system: A549 NSCLC
ACHN renal = test system: ACHN renal
CAKI-1 renal = test system: CAKI-1 renal
CCRF-CEM leukemia = test system: CCRF-CEM leukemia
COLO 205 colon = test system: COLO 205 colon
DLD-1 colon = test system: DLD-1 colon
DMS 273 small cell lung = test system: DMS 273 small cell lung
DU-145 prostate = test system: DU-145 prostate
EKVX NSCLC = test system: EKVX NSCLC
HCC-2998 colon = test system: HCC-2998 colon
HCT-116 colon = test system: HCT-116 colon
HCT-15 colon = test system: HCT-15 colon
HL-60(TB) leukemia = test system: HL-60(TB) leukemia
HOP-18 NSCLC = test system: HOP-18 NSCLC
HOP-62 NSCLC = test system: HOP-62 NSCLC
HOP-92 NSCLC = test system: HOP-92 NSCLC
HT29 colon = test system: HT29 colon
IGROV1 ovarian = test system: IGROV1 ovarian
K-562 leukemia = test system: K-562 leukemia
KM12 colon = test system: KM12 colon
KM20L2 colon = test system: KM20L2 colon
LOX IMVI melanoma = test system: LOX IMVI melanoma
LXFL 529 NSCLC = test system: LXFL 529 NSCLC
M14 melanoma = test system: M14 melanoma
M19-MEL melanoma = test system: M19-MEL melanoma
MALME-3M melanoma = test system: MALME-3M melanoma
MOLT-4 leukemia = test system: MOLT-4 leukemia
NCI-H226 lung = test system: NCI-H226 lung
NCI-H23 lung = test system: NCI-H23 lung
NCI-H460 lung = test system: NCI-H460 lung
NCI-H522 lung = test system: NCI-H522 lung
OVCAR-3 ovarian = test system: OVCAR-3 ovarian
OVCAR-4 ovarian = test system: OVCAR-4 ovarian
OVCAR-5 ovarian = test system: OVCAR-5 ovarian
OVCAR-8 ovarian = test system: OVCAR-8 ovarian
RPMI-8226 leukemia = test system: RPMI-8226 leukemia
RXF 393 renal = test system: RXF 393 renal
SF-268 CNS = test system: SF-268 CNS
SF-295 CNS = test system: SF-295 CNS
SF-539 CNS = test system: SF-539 CNS
SK-MEL-2 melanoma = test system: SK-MEL-2 melanoma
SK-MEL-28 melanoma = test system: SK-MEL-28 melanoma
SK-MEL-5 melanoma = test system: SK-MEL-5 melanoma
SK-OV-3 ovarian = test system: SK-OV-3 ovarian
SN12C renal = test system: SN12C renal
SNB-19 CNS = test system: SNB-19 CNS
SNB-75 CNS = test system: SNB-75 CNS
SNB-78 CNS = test system: SNB-78 CNS
SR leukemia = test system: SR leukemia
SW-620 colon = test system: SW-620 colon
TK-10 renal = test system: TK-10 renal
U251 CNS = test system: U251 CNS
UACC-257 melanoma = test system: UACC-257 melanoma
UACC-62 melanoma = test system: UACC-62 melanoma
UO-31 renal = test system: UO-31 renal
XF 498 CNS = test system: XF 498 CNS

CC(=O)N/C=C/c1cc(O)ccc1O
TGI (786-0 renal): 48100 nM | TGI (A498 renal): 98100 nM | TGI (A549 NSCLC): > 76400 nM | TGI (ACHN renal): 37400 nM | TGI (CAKI-1 renal): 41700 nM | TGI (CCRF-CEM leukemia): 75300 nM | TGI (COLO 205 colon): 45800 nM | TGI (DLD-1 colon): 48200 nM | TGI (DMS 273 small cell lung): > 100000 nM | TGI (DU-145 prostate): > 100000 nM | TGI (EKVX NSCLC): > 73600 nM | TGI (HCC-2998 colon): > 76200 nM | TGI (HCT-116 colon): 47400 nM | TGI (HCT-15 colon): > 72900 nM | TGI (HL-60(TB) leukemia): 54000 nM | TGI (HOP-18 NSCLC): 35200 nM | TGI (HOP-62 NSCLC): > 55200 nM | TGI (HOP-92 NSCLC): 36800 nM | TGI (HT29 colon): 48600 nM | TGI (IGROV1 ovarian): > 68100 nM | TGI (K-562 leukemia): > 91700 nM | TGI (KM12 colon): > 100000 nM | TGI (KM20L2 colon): > 67700 nM | TGI (LOX IMVI melanoma): 45600 nM | TGI (LXFL 529 NSCLC): 29000 nM | TGI (M14 melanoma): 48200 nM | TGI (M19-MEL melanoma): 46700 nM | TGI (MALME-3M melanoma): > 60600 nM | TGI (MOLT-4 leukemia): 37100 nM | TGI (NCI-H226 lung): > 77400 nM | TGI (NCI-H23 lung): 56100 nM | TGI (NCI-H460 lung): > 74600 nM | TGI (NCI-H522 lung): 7190 nM | TGI (OVCAR-3 ovarian): 29800 nM | TGI (OVCAR-4 ovarian): 47900 nM | TGI (OVCAR-5 ovarian): 38100 nM | TGI (OVCAR-8 ovarian): > 85900 nM | TGI (RPMI-8226 leukemia): > 89900 nM | TGI (RXF 393 renal): 49300 nM | TGI (SF-268 CNS): 49800 nM | TGI (SF-295 CNS): 48100 nM | TGI (SF-539 CNS): > 66500 nM | TGI (SK-MEL-2 melanoma): 55100 nM | TGI (SK-MEL-28 melanoma): 48600 nM | TGI (SK-MEL-5 melanoma): > 67500 nM | TGI (SK-OV-3 ovarian): > 70600 nM | TGI (SN12C renal): 46900 nM | TGI (SNB-19 CNS): > 72400 nM | TGI (SNB-75 CNS): > 81900 nM | TGI (SNB-78 CNS): > 71800 nM | TGI (SR leukemia): 70500 nM | TGI (SW-620 colon): 35400 nM | TGI (TK-10 renal): 54500 nM | TGI (U251 CNS): > 68600 nM | TGI (UACC-257 melanoma): 47900 nM | TGI (UACC-62 melanoma): 47100 nM | TGI (UO-31 renal): 46200 nM | TGI (XF 498 CNS): 32300 nM

C=[CH][Sn]([CH]=C)([S]c1cccc2cccnc12)[S]c1cccc2cccnc12
GI50 (786-0 renal): 216 nM | TGI (786-0 renal): 452 nM | GI50 (A549 NSCLC): 343 nM | TGI (A549 NSCLC): 1120 nM | GI50 (ACHN renal): 206 nM | TGI (ACHN renal): 507 nM | GI50 (CAKI-1 renal): 366 nM | TGI (CAKI-1 renal): 1580 nM | GI50 (CCRF-CEM leukemia): 76.7 nM | TGI (CCRF-CEM leukemia): 641 nM | GI50 (COLO 205 colon): 70.2 nM | TGI (COLO 205 colon): 254 nM | GI50 (DLD-1 colon): 244 nM | TGI (DLD-1 colon): 722 nM | GI50 (DMS 273 small cell lung): 216 nM | TGI (DMS 273 small cell lung): 486 nM | GI50 (EKVX NSCLC): 678 nM | TGI (EKVX NSCLC): 1970 nM | GI50 (HCC-2998 colon): 212 nM | TGI (HCC-2998 colon): 437 nM | GI50 (HCT-116 colon): 165 nM | TGI (HCT-116 colon): 318 nM | GI50 (HCT-15 colon): 237 nM | TGI (HCT-15 colon): 648 nM | GI50 (HL-60(TB) leukemia): 268 nM | TGI (HL-60(TB) leukemia): 611 nM | GI50 (HOP-18 NSCLC): 1660 nM | TGI (HOP-18 NSCLC): 3020 nM | GI50 (HOP-62 NSCLC): 1450 nM | TGI (HOP-62 NSCLC): 3490 nM | GI50 (HOP-92 NSCLC): 1590 nM | TGI (HOP-92 NSCLC): 3070 nM | GI50 (HT29 colon): 226 nM | TGI (HT29 colon): 476 nM | GI50 (IGROV1 ovarian): 273 nM | TGI (IGROV1 ovarian): 726 nM | GI50 (K-562 leukemia): 234 nM | TGI (K-562 leukemia): 621 nM | GI50 (KM12 colon): 176 nM | TGI (KM12 colon): 322 nM | GI50 (KM20L2 colon): 211 nM | TGI (KM20L2 colon): 449 nM | GI50 (LOX IMVI melanoma): 172 nM | TGI (LOX IMVI melanoma): 310 nM | GI50 (LXFL 529 NSCLC): 236 nM | TGI (LXFL 529 NSCLC): 649 nM | GI50 (M14 melanoma): 210 nM | TGI (M14 melanoma): 404 nM | GI50 (M19-MEL melanoma): 194 nM | TGI (M19-MEL melanoma): 372 nM | GI50 (MOLT-4 leukemia): 287 nM | TGI (MOLT-4 leukemia): 967 nM | GI50 (NCI-H226 lung): 280 nM | TGI (NCI-H226 lung): 1150 nM | GI50 (NCI-H23 lung): 169 nM | TGI (NCI-H23 lung): 388 nM | GI50 (NCI-H460 lung): 201 nM | TGI (NCI-H460 lung): 417 nM | GI50 (OVCAR-3 ovarian): 268 nM | TGI (OVCAR-3 ovarian): 810 nM | GI50 (OVCAR-4 ovarian): 204 nM | TGI (OVCAR-4 ovarian): 553 nM | GI50 (OVCAR-5 ovarian): 237 nM | TGI (OVCAR-5 ovarian): 745 nM | GI50 (OVCAR-8 ovarian): 313 nM | TGI (OVCAR-8 ovarian): 1000 nM | GI50 (RPMI-8226 leukemia): 248 nM | TGI (RPMI-8226 leukemia): 692 nM | GI50 (RXF 393 renal): 255 nM | TGI (RXF 393 renal): 678 nM | GI50 (SF-295 CNS): 438 nM | TGI (SF-295 CNS): 1830 nM | GI50 (SF-539 CNS): 321 nM | TGI (SF-539 CNS): 1010 nM | GI50 (SK-MEL-2 melanoma): 222 nM | TGI (SK-MEL-2 melanoma): 490 nM | GI50 (SK-MEL-28 melanoma): 138 nM | TGI (SK-MEL-28 melanoma): 321 nM | GI50 (SK-MEL-5 melanoma): 203 nM | TGI (SK-MEL-5 melanoma): 389 nM | GI50 (SK-OV-3 ovarian): 436 nM | TGI (SK-OV-3 ovarian): 1550 nM | GI50 (SN12C renal): 442 nM | TGI (SN12C renal): 1600 nM | GI50 (SNB-19 CNS): 794 nM | TGI (SNB-19 CNS): 2040 nM | GI50 (SNB-75 CNS): 562 nM | TGI (SNB-75 CNS): 2370 nM | GI50 (SNB-78 CNS): 145 nM | TGI (SNB-78 CNS): 396 nM | GI50 (SR leukemia): 216 nM | TGI (SR leukemia): 687 nM | GI50 (SW-620 colon): 156 nM | TGI (SW-620 colon): 299 nM | GI50 (TK-10 renal): 458 nM | TGI (TK-10 renal): 1460 nM | GI50 (U251 CNS): 191 nM | TGI (U251 CNS): 380 nM | GI50 (UACC-257 melanoma): 212 nM | TGI (UACC-257 melanoma): 494 nM | GI50 (UACC-62 melanoma): 147 nM | TGI (UACC-62 melanoma): 287 nM | GI50 (UO-31 renal): 181 nM | TGI (UO-31 renal): 358 nM | GI50 (XF 498 CNS): 283 nM | TGI (XF 498 CNS): 679 nM
